The text below walks through data of patent US20240279184A1, “HETEROAROMATIC ANALOGUES OF 3-BENZYLMENADIONE DERIVATIVES AND PROCESSES FOR THEIR PREPARATION” (CENTRE NATIONAL DE LA RECHERCHE SCIENTIFIQUE, priority 2021, published 2024).

Structures are written as SMILES.

The subject of test [1] is Plasmodium falciparum NF54 strain. In words: primary screening of antimalarial activity, Plasmodium falciparum NF54 strain. In kind it is cell-based. To be noted: for antimalarial activity compared with the regioisomer (potency and specificity): NF54 strain versus rat L6 myoblasts, MR00418 vs MR00397, MR00419 vs MR00407; for IC50: Plasmodium falciparum NF54 strain, first primary screening.

For test [2], the system named is rat L6 myoblast cell line. In words: primary screening on the rat L6 myoblast cell line (specificity/cytotoxicity). The note with it: first primary screening. The format is cell-based.

As for `CC1=C(Cc2ccc(C(F)(F)F)nc2)C(=O)c2ccccc2C1=O` [MRO0418, 2-methyl-3-((6-(trifluoromethyl)pyridin-3-yl)methyl) naphthalene-1,4-dione], in test [1], the “antimalarial activity compared with the regioisomer (potency and specificity)” value is “more potent and specific antimalarial activities than the regioisomers”; the IC50 came to 0.006 µM. This compound also displayed an IC50 in test [2] of 179 µM.

Consider `CC1=C(Cc2cnc(C(F)(F)F)nc2)C(=O)c2ccccc2C1=O` [MRO0419, 2-methyl-3-((2-(trifluoromethyl)pyrimidin-5-yl)methyl) naphthalene-1,4-dione], for which, in test [1], the “antimalarial activity compared with the regioisomer (potency and specificity)” value is “more potent and specific antimalarial activities than the regioisomers”; it took 0.065 µM to reach half-maximal inhibition (IC50). The compound also showed an IC50 in test [2] of 48.3 µM.

Usually IC50 stands for the concentration needed to halve the response being measured. High values mean weaker potency in that assay, low ones greater potency in that assay.
